According to patent publication EP0495091B1 (Metabasis Therapeutics Inc., priority 1990, dated 1992):
Values joined by “and” are separate entries in the source; they are usually repeats but may differ in a detail not shown here. Equal entries are not always repeated. Where two headings read alike, the source gives them in different places.

How the values were obtained:
Isolated rat hearts = assay: Improved functional recovery in isolated hearts (Langendorff, post-ischemic LVDP); conditions: 30 min ischemia, 30 min reperfusion, number in brackets = hearts
Procedure: Isolated rat hearts were cannulated via the ascending aorta and attached to a perfusion apparatus according to the method of Langendorff. The hearts were perfused at a constant pressure of 100 cm of H2O with a modified Krebs-Henseleit buffer (pH 7.4) at 37°C. As a measure of heart function, left ventricular developed pressure (LVDP) was continuously monitored. Following equilibration of the hearts for a period of 30 min., the hearts were subjected to reduced flow i.e. ischemia, by reducing the pressure to 10 cm of H2O for 30 min. Flow was then restored by returning the pressure to its original level (100 cm of H2O) for a further 30 min.

[1] = tested on: longitudinal muscle from the guinea pig ileum; assay: Inhibition of stimulated contraction in isolated ileum; conditions: concentration which inhibited electrically stimulated contraction by 50%, read-out: IC50
Procedure: Parallel platinum electrodes were used to deliver electrical current at 1 minute intervals at a voltage adequate to induce contraction of 90% of maximal.

ischemic rat hearts = assay: Rat heart ischemia model, tissue adenosine levels; type: in vivo, rats; conditions: intraperitoneal injection, hearts excised after 60 minutes, incubated 60 minutes at 37°C, HPLC
Procedure: Male rats were injected intraperitonealy with either the AICA riboside analog, AICA riboside or saline, as a control. After 60 minutes, the hearts were excised and incubated at 37°C for a further 60 minutes. Tissue extracts were prepared and analyzed for adenosine by high performance liquid chromatography (HPLC). […]

male Mongolian gerbils = assay: Experimental stroke model (gerbil brain ischemia); type: in vivo; conditions: pretreatment with 500 mg/kg; bilateral carotid occlusion for 5 minutes; histology after seven days
Procedure: In this test, male Mongolian gerbils were anesthetized with 2-3% halothane in N20:02 and the common carotid arteries exposed. Ischemia was then induced by bilateral occlusion of both common carotid arteries for 5 minutes. Seven days following the ischemic insult, brains were removed and processed for histology.

[2] = cited from earlier work
[3] = target: T1, calf intestinal musosa adenosine deaminase (Bos taurus, UniProt P56658); assay: Adenosine deaminase activity inhibition; type: biochemical; conditions: 80 µM adenosine, pH 7.0, 10 minutes at 37°C
T1 construct: calf intestinal musosa adenosine deaminase; from tissue; host or cells: calf intestinal mucosa
T1 sequence (P56658 1-363): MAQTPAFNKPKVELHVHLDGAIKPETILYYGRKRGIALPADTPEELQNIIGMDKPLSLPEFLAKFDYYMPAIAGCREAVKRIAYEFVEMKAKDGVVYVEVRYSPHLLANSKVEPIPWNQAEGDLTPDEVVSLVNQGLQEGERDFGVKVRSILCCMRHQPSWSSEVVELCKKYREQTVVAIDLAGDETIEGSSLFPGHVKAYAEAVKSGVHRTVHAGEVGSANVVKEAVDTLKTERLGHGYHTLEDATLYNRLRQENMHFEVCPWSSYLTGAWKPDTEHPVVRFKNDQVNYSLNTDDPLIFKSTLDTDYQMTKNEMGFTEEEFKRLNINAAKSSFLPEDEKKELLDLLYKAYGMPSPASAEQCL
Procedure: Different concentrations of the test compounds were incubated in the assay mixture for 10 minutes at 37°C. The reaction was monitored continuously for oxidation of NADH from the change in absorbance at 340 nm.

[4] = target: T2, NBTI-specific adenosine transport site (Homo sapiens, UniProt Q99808); assay: [3H]-NBTI binding assay; conditions: 50% displacement of bound [3H]-NBTI (0.5 nM); neuronal membrane protein, 30 minutes, pH 7.4, room temperature; read-out: ED50 (the source's name)
T2 construct: incubated for 30 minutes with 0.5 mg neuronal membrane protein together with 0.5 nM [^3H]-NBTI; from tissue
T2 sequence (Q99808 1-456): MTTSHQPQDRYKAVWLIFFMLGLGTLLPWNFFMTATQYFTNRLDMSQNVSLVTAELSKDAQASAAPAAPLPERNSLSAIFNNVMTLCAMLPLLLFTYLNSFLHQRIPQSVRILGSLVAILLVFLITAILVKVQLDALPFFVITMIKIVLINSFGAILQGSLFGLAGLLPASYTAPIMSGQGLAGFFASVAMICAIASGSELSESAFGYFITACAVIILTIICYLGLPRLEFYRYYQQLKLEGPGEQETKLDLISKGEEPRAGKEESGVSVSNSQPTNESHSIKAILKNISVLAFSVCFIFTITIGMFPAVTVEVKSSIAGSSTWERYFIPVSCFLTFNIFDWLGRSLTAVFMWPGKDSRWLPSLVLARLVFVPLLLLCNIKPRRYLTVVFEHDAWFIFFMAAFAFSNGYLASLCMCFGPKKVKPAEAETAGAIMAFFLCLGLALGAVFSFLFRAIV
Procedure: Increasing concentrations of the test compounds were incubated for 30 minutes with 0.5 mg neuronal membrane protein together with 0.5 nM [^3H]-NBTI in a Tris buffer (pH 7.4) at room temperature. The assays were quenched and membranes collected by rapid filtration. Filters were then solubilized and radioactivity determined by scintillation counting.

[5] = tested on: coronary endothelial cells; assay: Inhibition of adenosine utilization in cell culture; type: cell-based; conditions: Endothelial cell, 1 µM [3H] adenosine, 15 minutes, read-out: Inhibition of Adenosine Utilization (%)
Procedure: Inhibition of adenosine utilization was determined by measuring the concentration of extracellular adenosine by scintillation counting following separation by thin layer chromatography (TLC).

[6] = tested on: coronary endothelial cells; assay: Adenosine release from isolated cells under net ATP breakdown; type: cell-based; conditions: 50 µM test compound
Procedure: In this experimental model the cells were treated with 50 µM of the test compound and incubated for 16 hours at 37°C. Cells were then washed with phosphate-buffered saline and resuspended in standard culture medium containing no glucose (to inhibit glycolysis), 50 µM antimycin A (to inhibit oxidative phosphorylation) and 20 µM deoxycoformycin (to inhibit adenosine utilization by adenosine deaminase). This treatment was designed to simulate ischemic condition by inducing net ATP breakdown. Media was then processed for HPLC.

[7] = tested on: platelet aggregation in human whole blood; assay: Inhibition of platelet aggregation in human whole blood; type: cell-based; conditions: Homo sapiens, Platelet; 10 minutes at 37°C; 10 µM adenosine added 5 minutes before; ADP (6-25 µM) induced; impedance technique
Procedure: Whole blood was drawn from healthy donors and collected in 0.1 vol. of sodium citrate to prevent coagulation. Platelet aggregation was measured by the impedance technique using a Whole Blood Aggregometer.

[8] = Oral bioavailability and half-life in fasted adult beagles; conditions: beagle, dog, in vivo, fasted adult beagles
Procedure: Heparinized blood and urine were collected at selected intervals over 24 hours. Each sample was chilled, centrifuged at 4°C and frozen prior to HPLC analysis.

With `Nc1c(C(=O)NCc2ccccc2)ncn1[C@@H]1O[C@H](CO)[C@@H](O)[C@H]1O` [Compound No. 11, 5-Amino-1-beta-D-ribofuranosylimidazole-4-N-(benzyl)carboxamide] the “Function Recovery % Baseline LVDP (% of hearts)” value (Isolated rat hearts; 5 µM in perfusion buffer) was 77.2±5.8 (7) %, the “Function Recovery % Baseline LVDP (% of hearts)” value (Isolated rat hearts; 20 µM in perfusion buffer) was 85.7±6.2 (3) % and the IC50 [1] was 200 µM. The “Tissue Adenosine Levels (% Increase vs. Saline)” value (ischemic rat hearts; listed as 11 (1-226)) was 53% and 45% and the “effect in a gerbil model of brain ischemia (hippocampal pyramidal cell survival)” value (male Mongolian gerbils) was “protective effects”.
In the case of `Nc1c(C(=O)NC2CC2)ncn1[C@@H]1O[C@H](CO)[C@@H](O)[C@H]1O` [Compound No. 12, 5-Amino-1-beta-D-ribofuranosylimidazole-4-N-(cyclopropyl)carboxamide], the IC50 [1] is reported as 400 µM and the “Tissue Adenosine Levels (% Increase vs. Saline)” value (ischemic rat hearts) is reported as 29%.
With `Nc1c(C(=O)NN2CCCCC2)ncn1[C@@H]1O[C@H](CO)[C@@H](O)[C@H]1O` [Compound No. 36, 5-amino-4-(1-piperidinocarbamoyl)-1-β-D-ribofuranosylimidazole] the “Tissue Adenosine Levels (% Increase vs. Saline)” value (ischemic rat hearts) was 34%.
For `Nc1ncnc2c1ncn2[C@@H]1O[C@H](CO)[C@@H](O)[C@H]1O` [adenosine], the “half life of adenosine in blood” value [2] is given as < 10 s.
For `CO[C@@H]1[C@H](O)[C@@H](CO)O[C@H]1n1cnc(C(N)=O)c1N` [Compound No. 20, 5-Amino-1-(2-O-methyl-β-D-ribofuranosyl)-imidazole-4-carboxamide], the IC50 [3] was 1400 µM.
In the case of `Nc1c(C(=O)NC2CCCC2)ncn1[C@@H]1O[C@H](CO)[C@@H](O)[C@H]1O` [Compound No. 10, 5-Amino-1-beta-D-ribofuranosylimidazole-4-N-(cyclopentyl)carboxamide], the “Function Recovery % Baseline LVDP (% of hearts)” value (Isolated rat hearts; 5 µM in perfusion buffer) is reported as 83.7±0.7 (6) %, the “Function Recovery % Baseline LVDP (% of hearts)” value (Isolated rat hearts; 20 µM in perfusion buffer) is reported as 84.5±3.5 (2) % and the “Tissue Adenosine Levels (% Increase vs. Saline)” value (ischemic rat hearts; listed as 10 (1-186)) is reported as 79% and 68%. The EC50 [4] was 350 µM and the “effect in a gerbil model of brain ischemia (hippocampal pyramidal cell survival)” value (male Mongolian gerbils) was “protective effects”.
`CCO[C@@H]1[C@H](O)[C@@H](CO)O[C@H]1n1cnc(C(N)=O)c1N` [Compound No. 34, 5-amino-1-(2-O-ethyl-β-D-ribofuranosyl)-4-imidazole carboxamide] showed an IC50 [3] of 510 µM.
For `NC(=O)c1ncn([C@@H]2O[C@H](CO)[C@@H](O)[C@H]2O)c1N` [Compound No. 1, 5-amino-1-beta-D-ribofuranosylimidazole-4-carboxamide, reference compound], the “Function Recovery % Baseline LVDP (% of hearts)” value (Isolated rat hearts; 5 µM in perfusion buffer) was 64.2±1.5 (6) %, the “Function Recovery % Baseline LVDP (% of hearts)” value (Isolated rat hearts; 20 µM in perfusion buffer) was 79.4±1.3 (34) % and the IC50 ([1]; Cavia porcellus) was > 1000 µM. The “Tissue Adenosine Levels (% Increase vs. Saline)” value (ischemic rat hearts) was 30%, the inhibition at 5 µM ([5]; 5 µM test compound) was 5 ± 2% and the inhibition at 50 µM ([5]; 50 µM test compound) was 10 ± 1%. For the same compound, the EC50 [4] was > 1000 µM, the “Extracellular Adenosine Levels” value ([6]; 16 hours at 37°C, then no glucose, antimycin A, deoxycoformycin) was 1.64 ± 0.12 µM and the “Extracellular Adenosine Increase (%)” value ([6]; 16 hours, increase versus control) was 15.5%. The IC50 [7] was 2.7 mM, the bioavailability ([8]; oral, 10 mg/kg IV bolus and 20 mg/kg solution via stomach tube, read-out: Absolute Oral Bioavailability %) was 8% and the half-life [8] was 21 min.
